{"source": "patent US20230390274A1", "about": "(EPIRIUM BIO INC., priority 2020, published 2023)", "data": [{"biological_target": "15-PGDH/HPGD (Homo sapiens (Human), UniProt P15428)", "sequence (P15428 whole entry)": "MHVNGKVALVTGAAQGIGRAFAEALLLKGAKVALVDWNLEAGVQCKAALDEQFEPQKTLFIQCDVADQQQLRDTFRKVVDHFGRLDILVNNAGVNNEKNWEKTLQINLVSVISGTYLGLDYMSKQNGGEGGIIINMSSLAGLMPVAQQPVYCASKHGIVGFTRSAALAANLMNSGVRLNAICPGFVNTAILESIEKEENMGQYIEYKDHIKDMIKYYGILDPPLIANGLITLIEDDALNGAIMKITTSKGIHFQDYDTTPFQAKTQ", "test": "hPGDH inhibitor screening biochemical assay", "conditions": "10 nM 15-PGDH/HPGD, 15 μM PGE2, 0.25 mM NAD; read-out: hPGDH: Average IC50", "procedure,_shortened": "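10 nM recombinant 15-PGDH was preincubated with compound (10-point) for 10 min at 37° C. in 50 mM Tris-HCl pH 7.5, 0.01% Tween 20. Then 15 μM PGE2 and 0.25 mM NAD+ were added for 10 min at rt. NADH fluorescence (ex/em 340/485 nm) gave % inhibition versus 1% DMSO and a four-parameter IC50.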", "units": {"IC50": "µM"}, "values": [{"smiles": "O=C(c1cnc2c(ccn2-c2cncc(-c3noc(=O)[nH]3)c2)c1)N1CCC(F)(F)CC1", "note": "[A-252, 3-(5-(5-(4,4-difluoropiperidine-1-carbonyl)-1H-pyrrolo[2,3-b]pyridin-1-yl)pyridin-3-yl)-1,2,4-oxadiazol-5(4H)-one]", "IC50": "< 0.1"}, {"smiles": "O=C(c1cnc2c(ccn2-c2ccc(-c3ncn[nH]3)nc2)c1)N1CCC(F)(F)CC1", "note": "[A-253]", "IC50": "< 0.1"}, {"smiles": "O=C(c1cnc2c(ccn2-c2ccc(-c3noc(=O)[nH]3)nc2)c1)N1CCC(F)(F)CC1", "note": "[A-254, 3-(5-(5-(4,4-difluoropiperidine-1-carbonyl)-1H-pyrrolo[2,3-b]pyridin-1-yl)pyridin-2-yl)-1,2,4-oxadiazol-5(4H)-one]", "IC50": "< 0.1"}, {"smiles": "CC1(C)NC(=O)N(c2ccc(-n3ccc4cc(C(=O)N5CCC(F)(F)CC5)cnc43)cn2)C1=O", "note": "[A-255]", "IC50": "< 0.1"}, {"smiles": "O=C(Nc1cncc(-n2ccc3cc(C(=O)N4CCC(F)(F)CC4)cnc32)c1)c1ccno1", "note": "[A-256]", "IC50": "< 0.1"}, {"smiles": "O=C(Nc1ccno1)c1cncc(-n2ccc3cc(C(=O)N4CCC(F)(F)CC4)cnc32)c1", "note": "[A-257, 5-(5-(4,4-difluoropiperidine-1-carbonyl)-1H-pyrrolo[2,3-b]pyridin-1-yl)-N-(isoxazol-5-yl)nicotinamide]", "IC50": "< 0.1"}, {"smiles": "O=C(Nc1ccno1)c1ccc(-n2ccc3cc(C(=O)N4CCC(F)(F)CC4)cnc32)cn1", "note": "[A-258]", "IC50": "< 0.1"}, {"smiles": "N#Cc1ccc(-n2ccc3nc(C(=O)N4CCC(F)CC4)ccc32)cc1", "note": "[A-259, 4-(5-(4-fluoropiperidine-1-carbonyl)-1H-pyrrolo[3,2-b]pyridin-1-yl)benzonitrile]", "IC50": "≥ 1"}, {"smiles": "N#Cc1ccc(-n2ccc3cc(C(=O)N4CCC(F)CC4)ncc32)cc1", "note": "[A-260, 4-(5-(4-fluoropiperidine-1-carbonyl)-1H-pyrrolo[2,3-c]pyridin-1-yl)benzonitrile]", "IC50": "≥ 1"}, {"smiles": "O=C(NCCO)c1cccc(-n2ccc3cc(C(=O)N4CCC(F)(F)CC4)cnc32)c1", "note": "[A-263, 3-(5-(4,4-difluoropiperidine-1-carbonyl)-1H-pyrrolo[2,3-b]pyridin-1-yl)-N-(2-hydroxyethyl)benzamide]", "IC50": "< 0.1"}, {"smiles": "O=C(O)c1ccc(-n2ccc3cc(C(=O)N4CCC(F)(F)CC4)cnc32)nc1", "note": "[A-264]", "IC50": "< 0.1"}, {"smiles": "Cc1nc(-c2cncc(-n3ccc4cc(C(=O)N5CCC(F)(F)CC5)cnc43)c2)no1", "note": "[A-265, (4,4-difluoropiperidin-1-yl)(1-(5-(5-methyl-1,2,4-oxadiazol-3-yl)pyridin-3-yl)-1H-pyrrolo[2,3-b]pyridin-5-yl)methanone]", "IC50": "< 0.1"}, {"smiles": "O=C(c1cnc2c(ccn2-c2cncc(N3CCOC3=O)c2)c1)N1CCC(F)(F)CC1", "note": "[A-267]", "IC50": "< 0.1"}, {"smiles": "CCNC(=O)c1ccc(-n2ccc3cc(C(=O)N4CCC(F)(F)CC4)cnc32)nc1", "note": "[A-268, 6-(5-(4,4-difluoropiperidine-1-carbonyl)-1H-pyrrolo[2,3-b]pyridin-1-yl)-N-ethylnicotinamide]", "IC50": "< 0.1"}, {"smiles": "NC[C@@H]1CN(c2ccc(-n3ccc4cc(C(=O)N5CCC(F)(F)CC5)cnc43)cn2)C(=O)O1", "note": "[A-269]", "IC50": "< 0.1"}, {"smiles": "NC[C@@H]1CN(c2cncc(-n3ccc4cc(C(=O)N5CCC(F)(F)CC5)cnc43)c2)C(=O)O1", "note": "[A-270]", "IC50": "< 0.1"}, {"smiles": "CS(=O)(=O)NCCNC(=O)c1cccc(-n2ccc3cc(C(=O)N4CCC(F)(F)CC4)cnc32)c1", "note": "[A-271, 3-(5-(4,4-difluoropiperidine-1-carbonyl)-1H-pyrrolo[2,3-b]pyridin-1-yl)-N-(2-(methylsulfonamido)ethyl)benzamide]", "IC50": "< 0.1"}, {"smiles": "O=C(NC1CCS(=O)(=O)CC1)c1cc(Cl)cc(-n2ccc3cc(C(=O)N4CCC(F)(F)CC4)cnc32)c1", "note": "[A-272]", "IC50": "< 0.1"}, {"smiles": "NC(=O)c1cncc(-n2cc(Cl)c3cc(C(=O)N4CCC(F)(F)CC4)cnc32)c1", "note": "[A-273]", "IC50": "< 0.1"}, {"smiles": "O=C(c1cnc2c(ccn2-c2cncc(NS(=O)(=O)C3CC3)c2)c1)N1CCC(F)(F)CC1", "note": "[A-274, N-(5-(5-(4,4-difluoropiperidine-1-carbonyl)-1H-pyrrolo[2,3-b]pyridin-1-yl)pyridin-3-yl)cyclopropanesulfonamide]", "IC50": "< 0.1"}, {"smiles": "CCOC(=O)Nc1cncc(-n2ccc3cc(C(=O)N4CCC(F)(F)CC4)cnc32)c1", "note": "[A-275, ethyl (5-(5-(4,4-difluoropiperidine-1-carbonyl)-1H-pyrrolo[2,3-b]pyridin-1-yl)pyridin-3-yl)carbamate]", "IC50": "< 0.1"}, {"smiles": "NC(=O)[C@@H]1CCCN1C(=O)c1cccc(-n2ccc3cc(C(=O)N4CCC(F)(F)CC4)cnc32)c1", "note": "[A-276, (S)-1-(3-(5-(4,4-difluoropiperidine-1-carbonyl)-1H-pyrrolo[2,3-b]pyridin-1-yl)benzoyl)pyrrolidine-2-carboxamide]", "IC50": "< 0.1"}, {"smiles": "CC(C)(C(N)=O)c1cncc(-n2ccc3cc(C(=O)N4CCC(F)(F)CC4)cnc32)c1", "note": "[A-277, 2-(5-(5-(4,4-difluoropiperidine-1-carbonyl)-1H-pyrrolo[2,3-b]pyridin-1-yl)pyridin-3-yl)-2-methylpropanamide]", "IC50": "< 0.1"}, {"smiles": "NS(=O)(=O)c1cccc(-n2ccc3cc(C(=O)N4CCC(F)(F)CC4)cnc32)c1", "note": "[A-279]", "IC50": "< 0.1"}, {"smiles": "NS(=O)(=O)c1ccc(-n2ccc3cc(C(=O)N4CCC(F)(F)CC4)cnc32)cc1", "note": "[A-280]", "IC50": "< 0.1"}, {"smiles": "O=C(c1cnc2c(ccn2-c2cccc(C(=O)N3CCS(=O)(=O)C3)c2)c1)N1CCC(F)(F)CC1", "note": "[A-281, (4,4-difluoropiperidin-1-yl)(1-(3-(1,1-dioxidothiazolidine-3-carbonyl)phenyl)-1H-pyrrolo[2,3-b]pyridin-5-yl)methanone]", "IC50": "< 0.1"}, {"smiles": "O=C(Nc1cc(C2CC2)[nH]n1)c1cccc(-n2ccc3cc(C(=O)N4CCC(F)(F)CC4)cnc32)c1", "note": "[A-282, N-(5-cyclopropyl-1H-pyrazol-3-yl)-3-(5-(4,4-difluoropiperidine-1-carbonyl)-1H-pyrrolo[2,3-b]pyridin-1-yl)benzamide]", "IC50": "< 0.1"}, {"smiles": "O=C(Nc1ccn(C2CC2)n1)c1cccc(-n2ccc3cc(C(=O)N4CCC(F)(F)CC4)cnc32)c1", "note": "[A-283, N-(1-cyclopropyl-1H-pyrazol-3-yl)-3-(5-(4,4-difluoropiperidine-1-carbonyl)-1H-pyrrolo[2,3-b]pyridin-1-yl)benzamide]", "IC50": "< 0.1"}, {"smiles": "O=C(Nc1ccn(C2CC2)n1)c1cncc(-n2ccc3cc(C(=O)N4CCC(F)(F)CC4)cnc32)c1", "note": "[A-284, N-(1-cyclopropyl-1H-pyrazol-3-yl)-5-(5-(4,4-difluoropiperidine-1-carbonyl)-1H-pyrrolo[2,3-b]pyridin-1-yl)nicotinamide]", "IC50": "< 0.1"}, {"smiles": "O=C(Nc1cc(C2CC2)[nH]n1)c1cncc(-n2ccc3cc(C(=O)N4CCC(F)(F)CC4)cnc32)c1", "note": "[A-285, N-(5-cyclopropyl-1H-pyrazol-3-yl)-5-(5-(4,4-difluoropiperidine-1-carbonyl)-1H-pyrrolo[2,3-b]pyridin-1-yl)nicotinamide]", "IC50": "< 0.1"}, {"smiles": "N#Cc1cc(-n2ccc3cc(C(=O)N4CCC(F)(F)CC4)cnc32)cnc1O", "note": "[A-286]", "IC50": "< 0.1"}, {"smiles": "O=C(O)c1cccc(-n2ccc3cc(C(=O)N4CCC(F)(F)CC4)cnc32)c1", "note": "[A-287, 3-(5-(4,4-difluoropiperidine-1-carbonyl)-1H-pyrrolo[2,3-b]pyridin-1-yl)benzoic acid]", "IC50": "< 0.1"}, {"smiles": "O=C(c1cnc2c(ccn2-c2cc(Cl)cc(C(=O)N3CCS(=O)(=O)CC3)c2)c1)N1CCC(F)(F)CC1", "note": "[A-288]", "IC50": "< 0.1"}]}]}
